According to patent publication US20250186627A1, “RADIOLABELED COMPOUNDS TARGETING THE PROSTATE-SPECIFIC MEMBRANE ANTIGEN” (PROVINCIAL HEALTH SERVICES AUTHORITY, priority 2022, published 2025):
*1 amine or outer side, *2 acyl side, *3 side chain or, on linkers, in order; H or OH if unused. Where a SMILES comes first, the peptide text is derived from it. [ ]: non-standard residue; d: D form. The star is where a group is joined. ξ: configuration not given here. AadUreaLys(Nε) = O=C(O)CCC[C@H](NC(=O)N[C@@H](CCCCN*)C(=O)O)C(=O)O; ξLys(Nα-CO-ξAad) = O=C(O)CCCC(NC(=O)NC(CCCCN*)C(=O)O)C(=O)O; Butanoyl(4-(4-NO2Ph)) = O=C(CCCc1ccc([N+](=O)[O-])cc1)*; DOTA = O=C(O)CN1CCN(CC(=O)O)CCN(CC(=O)*)CCN(CC(=O)O)CC1; Ala(9-anthryl) = N[C@@H](Cc1c2ccccc2cc2ccccc12)C(=O)O; Butanoyl(4-(4-MeO-phenyl)) = COc1ccc(CCCC(=O)*)cc1; ξAla(9-anthryl) = NC(Cc1c2ccccc2cc2ccccc12)C(=O)O; X1 = O=C(C1CCC(CN[*:1])CC1)[*:2]; ξK = NCCCCC(N)C(=O)O

Assays:
PSMA = biological target: T1, PSMA (Homo sapiens, UniProt Q04609); test: In vitro PSMA competitive binding assay, LNCaP cells, [18F]DCFPyL radioligand; details: [18F]DCFPyL 0.1 nM, read-out: PSMA binding affinity (Ki)
T1 construct: endogenous in cells; host or cells: LNCaP cells
T1 sequence (Q04609 whole entry): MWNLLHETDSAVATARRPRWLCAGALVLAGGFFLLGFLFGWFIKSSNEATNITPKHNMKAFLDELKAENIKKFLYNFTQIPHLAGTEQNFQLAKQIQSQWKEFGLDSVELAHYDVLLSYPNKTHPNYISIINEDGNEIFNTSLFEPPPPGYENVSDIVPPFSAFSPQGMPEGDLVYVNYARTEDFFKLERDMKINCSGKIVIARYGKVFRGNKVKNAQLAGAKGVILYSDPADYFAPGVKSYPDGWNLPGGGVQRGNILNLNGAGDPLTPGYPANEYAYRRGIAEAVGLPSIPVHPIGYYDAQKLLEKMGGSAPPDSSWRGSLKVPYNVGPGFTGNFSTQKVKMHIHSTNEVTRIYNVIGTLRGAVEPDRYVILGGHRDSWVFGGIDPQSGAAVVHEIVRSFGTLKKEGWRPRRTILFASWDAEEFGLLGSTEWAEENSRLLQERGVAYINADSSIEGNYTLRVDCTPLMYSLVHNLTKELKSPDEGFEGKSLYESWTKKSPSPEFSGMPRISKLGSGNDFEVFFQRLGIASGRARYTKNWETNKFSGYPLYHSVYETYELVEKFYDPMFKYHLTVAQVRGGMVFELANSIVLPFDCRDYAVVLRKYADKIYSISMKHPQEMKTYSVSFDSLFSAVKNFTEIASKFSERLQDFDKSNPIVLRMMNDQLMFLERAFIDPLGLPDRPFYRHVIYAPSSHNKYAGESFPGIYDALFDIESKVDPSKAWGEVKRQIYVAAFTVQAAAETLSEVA
Description: Inhibition constants (Ki) to PSMA were measured by in vitro competition binding assays using [^18F]DCFPyL as the radioligand. LNCaP cells which were plated onto a 24-well poly-D-lysine coated plate for 48 h (400,000/well). Growth medium was removed and replaced with HEPES buffered saline (50 mM HEPES, pH 7.5, 0.9% sodium chloride). After 1 h, [^18F]DCFPyL (0.1 nM) was added to each well (in triplicate) containing varied concentrations ([…]) of tested compounds The assay mixtures were incubated for 1 h at 37° C. with gentle agitation followed by two washes with cold HEPES buffered saline. A trypsin solution (0.25%, 400 μL) was then added to each well to harvest the cells. Radioactivity was measured by gamma counting and Ki values calculated using the ‘one site—fit Ki’ built-in model in Prism 8 (GraphPad).

[1] = test system: NRG-mice bearing LNCaP tumors; test: Biodistribution (and PET/SPECT imaging) in NRG-mice bearing LNCaP tumors; type: in vivo; details: Avg
In short: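 LNCaP xenografts (~10 million cells, left dorsal flank) grown 4-6 weeks to 200-600 mm^3 in NRG mice. Tail-vein injection of 4-6 MBq ^68Ga or 18.5 MBq ^177Lu tracer under isoflurane; CT then 10-min static PET or 1-h SPECT. Biodistribution by gamma counting of weighed organs, expressed as %ID/g.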

COc1ccc(CCCC(=O)NCC(=O)N[C@@H](CCCCNC(=O)CN2CCN(CC(=O)O)CCN(CC(=O)O)CCN(CC(=O)O)CC2)C(=O)NCC(=O)NCC(=O)NCC(=O)NCC(=O)NCC2CCC(C(=O)N[C@@H](Cc3c4ccccc4cc4ccccc34)C(=O)NCCCC[C@H](NC(=O)N[C@@H](CCCC(=O)O)C(=O)O)C(=O)O)CC2)cc1 (stereo partly shown) [CCZ02059] ({Butanoyl(4-(4-MeO-phenyl))}-GK(DOTA)GGGG[X1][Ala(9-anthryl)]-{AadUreaLys(Nε)})
Ki (PSMA): 10.8 ± 3.28 nM

O=C([O-])CN1CCN(CC(=O)[O-])CCN(CC(=O)NCCCCC(NC(=O)CNC(=O)CCCc2ccc([N+](=O)[O-])cc2)C(=O)NCC(=O)NCC2CCC(C(=O)NC(Cc3c4ccccc4cc4ccccc34)C(=O)NCCCCC(NC(=O)NC(CCCC(=O)O)C(=O)O)C(=O)O)CC2)CCN(CC(=O)[O-])CC1.[225Ac+3] (stereo not shown) [^225Ac-CCZ02017] ({Butanoyl(4-(4-NO2Ph))}-G[ξK](DOTA)G[X1][ξAla(9-anthryl)]-{ξLys(Nα-CO-ξAad)})
Biodistribution: Adrenal gland ([1]; 3 h p.i.): 3.61 % ID/g
Biodistribution: Blood ([1]; 3 h p.i.): 9.83 % ID/g
Biodistribution: Bone ([1]; 3 h p.i.): 1.24 % ID/g
Biodistribution: Brain ([1]; 3 h p.i.): 0.19 % ID/g
Biodistribution: Fat ([1]; 3 h p.i.): 1.96 % ID/g
Biodistribution: Heart ([1]; 3 h p.i.): 2.27 % ID/g
Biodistribution: Intestine ([1]; 3 h p.i.): 1.02 % ID/g
Biodistribution: LNCaP tumor ([1]; 3 h p.i.): 23.63 % ID/g
Biodistribution: Lacrimal gland ([1]; 3 h p.i.): 0.92 % ID/g
Biodistribution: Liver ([1]; 3 h p.i.): 1.90 % ID/g
Biodistribution: Lungs ([1]; 3 h p.i.): 4.93 % ID/g
Biodistribution: Muscle ([1]; 3 h p.i.): 0.80 % ID/g
Biodistribution: Pancreas ([1]; 3 h p.i.): 1.14 % ID/g
Biodistribution: Salivary gland ([1]; 3 h p.i.): 3.37 % ID/g
Biodistribution: Seminal gland ([1]; 3 h p.i.): 2.26 % ID/g
Biodistribution: Spleen ([1]; 3 h p.i.): 1.15 % ID/g
Biodistribution: Stomach ([1]; 3 h p.i.): 0.47 % ID/g
Biodistribution: Testes ([1]; 3 h p.i.): 2.73 % ID/g
Biodistribution: Thyroid ([1]; 3 h p.i.): 1.72 % ID/g
Biodistribution: Urine ([1]; 3 h p.i.): 142.80 % ID/g
Biodistribution: kidney ([1]; 3 h p.i.): 14.29 % ID/g
Biodistribution: Adrenal gland ([1]; 24 h p.i.): 0.59 % ID/g
Biodistribution: Blood ([1]; 24 h p.i.): 0.28 % ID/g
Biodistribution: Bone ([1]; 24 h p.i.): 0.30 % ID/g
Biodistribution: Brain ([1]; 24 h p.i.): 0.03 % ID/g
Biodistribution: Fat ([1]; 24 h p.i.): 0.13 % ID/g
Biodistribution: Heart ([1]; 24 h p.i.): 0.25 % ID/g
Biodistribution: Intestine ([1]; 24 h p.i.): 0.15 % ID/g
Biodistribution: LNCaP tumor ([1]; 24 h p.i.): 42.31 % ID/g
Biodistribution: Lacrimal gland ([1]; 24 h p.i.): 0.32 % ID/g
Biodistribution: Liver ([1]; 24 h p.i.): 0.68 % ID/g
Biodistribution: Lungs ([1]; 24 h p.i.): 0.58 % ID/g
Biodistribution: Muscle ([1]; 24 h p.i.): 0.06 % ID/g
Biodistribution: Pancreas ([1]; 24 h p.i.): 0.09 % ID/g
Biodistribution: Salivary gland ([1]; 24 h p.i.): 0.35 % ID/g
Biodistribution: Seminal gland ([1]; 24 h p.i.): 0.15 % ID/g
Biodistribution: Spleen ([1]; 24 h p.i.): 0.50 % ID/g
Biodistribution: Stomach ([1]; 24 h p.i.): 0.20 % ID/g
Biodistribution: Testes ([1]; 24 h p.i.): 0.38 % ID/g
Biodistribution: Thyroid ([1]; 24 h p.i.): 0.33 % ID/g
Biodistribution: Urine ([1]; 24 h p.i.): 4.30 % ID/g
Biodistribution: kidney ([1]; 24 h p.i.): 6.87 % ID/g
Biodistribution: Adrenal gland ([1]; 72 h p.i.): 24.11 % ID/g
Biodistribution: Blood ([1]; 72 h p.i.): 0.01 % ID/g
Biodistribution: Bone ([1]; 72 h p.i.): 0.34 % ID/g
Biodistribution: Brain ([1]; 72 h p.i.): 0.02 % ID/g
Biodistribution: Fat ([1]; 72 h p.i.): 0.40 % ID/g
Biodistribution: Heart ([1]; 72 h p.i.): 0.16 % ID/g
Biodistribution: Intestine ([1]; 72 h p.i.): 0.06 % ID/g
Biodistribution: LNCaP tumor ([1]; 72 h p.i.): 54.12 % ID/g
Biodistribution: Lacrimal gland ([1]; 72 h p.i.): 1.39 % ID/g
Biodistribution: Liver ([1]; 72 h p.i.): 0.51 % ID/g
Biodistribution: Lungs ([1]; 72 h p.i.): 0.19 % ID/g
Biodistribution: Muscle ([1]; 72 h p.i.): 0.04 % ID/g
Biodistribution: Pancreas ([1]; 72 h p.i.): 0.09 % ID/g
Biodistribution: Salivary gland ([1]; 72 h p.i.): 0.33 % ID/g
Biodistribution: Seminal gland ([1]; 72 h p.i.): 0.03 % ID/g
Biodistribution: Spleen ([1]; 72 h p.i.): 0.93 % ID/g
Biodistribution: Stomach ([1]; 72 h p.i.): 0.06 % ID/g
Biodistribution: Testes ([1]; 72 h p.i.): 0.33 % ID/g
Biodistribution: Thyroid ([1]; 72 h p.i.): 0.22 % ID/g
Biodistribution: Urine ([1]; 72 h p.i.): 1.33 % ID/g
Biodistribution: kidney ([1]; 72 h p.i.): 3.62 % ID/g
Biodistribution: Adrenal gland ([1]; 144 h p.i.): 0.31 % ID/g
Biodistribution: Blood ([1]; 144 h p.i.): 0.01 % ID/g
Biodistribution: Bone ([1]; 144 h p.i.): 0.23 % ID/g
Biodistribution: Brain ([1]; 144 h p.i.): 0.02 % ID/g
Biodistribution: Fat ([1]; 144 h p.i.): 0.07 % ID/g
Biodistribution: Heart ([1]; 144 h p.i.): 0.14 % ID/g
Biodistribution: Intestine ([1]; 144 h p.i.): 0.06 % ID/g
Biodistribution: LNCaP tumor ([1]; 144 h p.i.): 71.25 % ID/g
Biodistribution: Lacrimal gland ([1]; 144 h p.i.): 0.65 % ID/g
Biodistribution: Liver ([1]; 144 h p.i.): 0.71 % ID/g
Biodistribution: Lungs ([1]; 144 h p.i.): 0.13 % ID/g
Biodistribution: Muscle ([1]; 144 h p.i.): 0.02 % ID/g
Biodistribution: Pancreas ([1]; 144 h p.i.): 0.14 % ID/g
Biodistribution: Salivary gland ([1]; 144 h p.i.): 0.21 % ID/g
Biodistribution: Seminal gland ([1]; 144 h p.i.): 0.04 % ID/g
Biodistribution: Spleen ([1]; 144 h p.i.): 0.65 % ID/g
Biodistribution: Stomach ([1]; 144 h p.i.): 0.05 % ID/g
Biodistribution: Testes ([1]; 144 h p.i.): 0.29 % ID/g
Biodistribution: Thyroid ([1]; 144 h p.i.): 0.23 % ID/g
Biodistribution: Urine ([1]; 144 h p.i.): 0.55 % ID/g
Biodistribution: kidney ([1]; 144 h p.i.): 1.95 % ID/g
Biodistribution: Adrenal gland ([1]; 240 h p.i.): 0.53 % ID/g
Biodistribution: Blood ([1]; 240 h p.i.): 0.02 % ID/g
Biodistribution: Bone ([1]; 240 h p.i.): 0.57 % ID/g
Biodistribution: Brain ([1]; 240 h p.i.): 0.02 % ID/g
Biodistribution: Fat ([1]; 240 h p.i.): 0.13 % ID/g
Biodistribution: Heart ([1]; 240 h p.i.): 0.16 % ID/g
Biodistribution: Intestine ([1]; 240 h p.i.): 0.06 % ID/g
Biodistribution: LNCaP tumor ([1]; 240 h p.i.): 123.67 % ID/g
Biodistribution: Lacrimal gland ([1]; 240 h p.i.): 0.19 % ID/g
Biodistribution: Liver ([1]; 240 h p.i.): 1.49 % ID/g
Biodistribution: Lungs ([1]; 240 h p.i.): 0.18 % ID/g
Biodistribution: Muscle ([1]; 240 h p.i.): 0.08 % ID/g
Biodistribution: Pancreas ([1]; 240 h p.i.): 0.06 % ID/g
Biodistribution: Salivary gland ([1]; 240 h p.i.): 0.32 % ID/g
Biodistribution: Seminal gland ([1]; 240 h p.i.): 0.06 % ID/g
Biodistribution: Spleen ([1]; 240 h p.i.): 1.14 % ID/g
Biodistribution: Stomach ([1]; 240 h p.i.): 0.08 % ID/g
Biodistribution: Testes ([1]; 240 h p.i.): 0.27 % ID/g
Biodistribution: Thyroid ([1]; 240 h p.i.): 0.23 % ID/g
Biodistribution: Urine ([1]; 240 h p.i.): 0.41 % ID/g
Biodistribution: kidney ([1]; 240 h p.i.): 2.24 % ID/g
